# According to ChEMBL document CHEMBL1201862, “PubChem BioAssay data set” (2004):
#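 Following 48 hours of exposure in 96-well plates, responses at five concentrations were used to interpolate endpoints linearly. Abbreviation: GI50, concentration required for 50% inhibition of growth.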 Calls of active or inactive are those of the source. Rule as the data show it: active = GI50 up to about 1.1 µM and inactive = higher.
# Tests used:
# Assay in all cases: NCI anticancer screen, dose series, 48 h
# 786-0 = system: 786-0
# A549 = system: A549
# ACHN = system: ACHN
# CAKI-1 = system: CAKI-1
# CCRF-CEM = system: CCRF-CEM
# COLO 205 = system: COLO 205
# DLD-1 = system: DLD-1
# DMS-114 = system: DMS-114
# DMS-273 = system: DMS-273
# EKVX = system: EKVX
# HCC 2998 = system: HCC 2998
# HCT-116 = system: HCT-116
# HCT-15 = system: HCT-15
# HL-60 = system: HL-60
# HOP-18 = system: HOP-18
# HOP-62 = system: HOP-62
# HOP-92 = system: HOP-92
# HT-29 = system: HT-29
# IGROV-1 = system: IGROV-1
# K562 = system: K562
# KM-20L2 = system: KM-20L2
# KM12 = system: KM12
# LOX IMVI = system: LOX IMVI
# LXFL 529 = system: LXFL 529
# M14 = system: M14
# M19-MEL = system: M19-MEL
# MOLT-4 = system: MOLT-4
# Malme-3M = system: Malme-3M
# NCI-H226 = system: NCI-H226
# NCI-H23 = system: NCI-H23
# NCI-H460 = system: NCI-H460
# NCI-H522 = system: NCI-H522
# OVCAR-3 = system: OVCAR-3
# OVCAR-4 = system: OVCAR-4
# OVCAR-5 = system: OVCAR-5
# OVCAR-8 = system: OVCAR-8
# RPMI-8226 = system: RPMI-8226
# RXF 393 = system: RXF 393
# SF-268 = system: SF-268
# SF-295 = system: SF-295
# SF-539 = system: SF-539
# SK-MEL-28 = system: SK-MEL-28
# SK-MEL-2 = system: SK-MEL-2
# SK-MEL-5 = system: SK-MEL-5
# SK-OV-3 = system: SK-OV-3
# SN12C = system: SN12C
# SNB-19 = system: SNB-19
# SNB-75 = system: SNB-75
# SNB-78 = system: SNB-78
# SR = system: SR
# SW-620 = system: SW-620
# TK-10 = system: TK-10
# U-251 = system: U-251
# UACC-257 = system: UACC-257
# UACC-62 = system: UACC-62
# XF498 = system: XF498
# A498 = system: A498
# RXF 631 = system: RXF 631
# UO-31 = system: UO-31
compound,measurement,setting,value
Cc1cc(C)c(-n2c(-c3ccccc3)cs/c2=N\N=C2C=C(C(C)(C)C)C(=O)C(C(C)(C)C)=C2)c(C)c1,GI50,786-0,> 100 µM (inactive)
same,GI50,A549,> 100 µM (inactive)
same,GI50,ACHN,90.2 µM (inactive)
same,GI50,CAKI-1,> 100 µM (inactive)
same,GI50,CCRF-CEM,> 100 µM (inactive)
same,GI50,COLO 205,> 100 µM (inactive)
same,GI50,DLD-1,> 100 µM (inactive)
same,GI50,DMS-114,47.4 µM (inactive)
same,GI50,DMS-273,> 100 µM (inactive)
same,GI50,EKVX,91.4 µM (inactive)
same,GI50,HCC 2998,> 100 µM (inactive)
same,GI50,HCT-116,64.6 µM (inactive)
same,GI50,HCT-15,> 100 µM
same,GI50,HL-60,50.5 µM (inactive)
same,GI50,HOP-18,> 100 µM (inactive)
same,GI50,HOP-62,> 100 µM (inactive)
same,GI50,HOP-92,39 µM (inactive)
same,GI50,HT-29,> 100 µM (inactive)
same,GI50,IGROV-1,> 100 µM (inactive)
same,GI50,K562,55.8 µM (inactive)
same,GI50,KM-20L2,> 100 µM (inactive)
same,GI50,KM12,> 100 µM (inactive)
same,GI50,LOX IMVI,83.8 µM (inactive)
same,GI50,LXFL 529,75.5 µM (inactive)
same,GI50,M14,> 100 µM (inactive)
same,GI50,M19-MEL,> 100 µM (inactive)
same,GI50,MOLT-4,> 100 µM (inactive)
same,GI50,Malme-3M,> 100 µM (inactive)
same,GI50,NCI-H226,> 100 µM (inactive)
same,GI50,NCI-H23,60.5 µM (inactive)
same,GI50,NCI-H460,> 100 µM (inactive)
same,GI50,NCI-H522,85.1 µM (inactive)
same,GI50,OVCAR-3,> 100 µM (inactive)
same,GI50,OVCAR-4,> 100 µM (inactive)
same,GI50,OVCAR-5,> 100 µM (inactive)
same,GI50,OVCAR-8,> 100 µM (inactive)
same,GI50,RPMI-8226,> 100 µM (inactive)
same,GI50,RXF 393,> 100 µM (inactive)
same,GI50,SF-268,> 100 µM (inactive)
same,GI50,SF-295,> 100 µM (inactive)
same,GI50,SF-539,> 100 µM (inactive)
same,GI50,SK-MEL-28,> 100 µM (inactive)
same,GI50,SK-MEL-2,> 100 µM (inactive)
same,GI50,SK-MEL-5,94 µM (inactive)
same,GI50,SK-OV-3,> 100 µM (inactive)
same,GI50,SN12C,> 100 µM (inactive)
same,GI50,SNB-19,> 100 µM (inactive)
same,GI50,SNB-75,21.3 µM (inactive)
same,GI50,SNB-78,> 100 µM (inactive)
same,GI50,SR,> 100 µM (inactive)
same,GI50,SW-620,> 100 µM (inactive)
same,GI50,TK-10,> 100 µM (inactive)
same,GI50,U-251,> 100 µM (inactive)
same,GI50,UACC-257,> 100 µM (inactive)
same,GI50,UACC-62,60.3 µM (inactive)
same,GI50,XF498,> 100 µM (inactive)
O=C(/C=C/c1ccc(Cl)c(Cl)c1)c1ccc2ccccc2c1,GI50,786-0,> 100 µM (inactive)
same,GI50,A498,> 100 µM (inactive)
same,GI50,A549,> 100 µM (inactive)
same,GI50,ACHN,> 100 µM (inactive)
same,GI50,CAKI-1,> 100 µM (inactive)
same,GI50,CCRF-CEM,> 100 µM (inactive)
same,GI50,COLO 205,13.6 µM (inactive)
same,GI50,DLD-1,> 100 µM (inactive)
same,GI50,DMS-114,> 100 µM (inactive)
same,GI50,DMS-273,> 100 µM (inactive)
same,GI50,EKVX,> 100 µM (inactive)
same,GI50,HCC 2998,> 100 µM (inactive)
same,GI50,HCT-116,> 100 µM (inactive)
same,GI50,HCT-15,> 100 µM
same,GI50,HL-60,32.7 µM (inactive)
same,GI50,HOP-18,> 100 µM (inactive)
same,GI50,HOP-62,> 100 µM (inactive)
same,GI50,HOP-92,> 100 µM (inactive)
same,GI50,HT-29,> 100 µM (inactive)
same,GI50,IGROV-1,> 100 µM (inactive)
same,GI50,K562,> 100 µM (inactive)
same,GI50,KM-20L2,> 100 µM (inactive)
same,GI50,KM12,> 100 µM (inactive)
same,GI50,LOX IMVI,> 100 µM (inactive)
same,GI50,LXFL 529,> 100 µM (inactive)
same,GI50,M14,> 100 µM (inactive)
same,GI50,M19-MEL,> 100 µM (inactive)
same,GI50,MOLT-4,48.9 µM (inactive)
same,GI50,Malme-3M,> 100 µM (inactive)
same,GI50,NCI-H226,70.5 µM (inactive)
same,GI50,NCI-H23,> 100 µM (inactive)
same,GI50,NCI-H460,37.7 µM (inactive)
same,GI50,NCI-H522,88.5 µM (inactive)
same,GI50,OVCAR-3,> 100 µM (inactive)
same,GI50,OVCAR-4,> 100 µM (inactive)
same,GI50,OVCAR-5,> 100 µM (inactive)
same,GI50,OVCAR-8,> 100 µM (inactive)
same,GI50,RPMI-8226,> 100 µM (inactive)
same,GI50,RXF 393,> 100 µM (inactive)
same,GI50,RXF 631,> 100 µM (inactive)
same,GI50,SF-268,> 100 µM (inactive)
same,GI50,SF-295,> 100 µM (inactive)
same,GI50,SF-539,> 100 µM (inactive)
same,GI50,SK-MEL-28,> 100 µM (inactive)
same,GI50,SK-MEL-2,> 100 µM (inactive)
same,GI50,SK-MEL-5,> 100 µM (inactive)
same,GI50,SK-OV-3,> 100 µM (inactive)
same,GI50,SN12C,19.7 µM (inactive)
same,GI50,SNB-19,> 100 µM (inactive)
same,GI50,SNB-75,52 µM (inactive)
same,GI50,SNB-78,> 100 µM (inactive)
same,GI50,SR,47.9 µM (inactive)
same,GI50,SW-620,> 100 µM (inactive)
same,GI50,TK-10,> 100 µM (inactive)
same,GI50,U-251,> 100 µM (inactive)
same,GI50,UACC-257,> 100 µM (inactive)
same,GI50,UACC-62,> 100 µM (inactive)
same,GI50,UO-31,> 100 µM (inactive)
